Experiments:
hDAT = hDAT (Homo sapiens, UniProt Q01959); experiment: Radioligand binding at DAT; settings: 10 μM; [3H]WIN35428; negative = enhanced radioligand binding
DOR = DOR (Homo sapiens, UniProt P41143); experiment: Radioligand binding at DOR
rat kidney TSPO = rat kidney TSPO (Rattus norvegicus, UniProt P16257); experiment: Radioligand binding at TSPO; settings: for Ki: TSPO, rat TSPO, [3H]PK11195
hA3AR = biological target: T1, hA3AR (Homo sapiens, UniProt P0DMS8); experiment: A3AR binding
T1 sequence (P0DMS8 1-318): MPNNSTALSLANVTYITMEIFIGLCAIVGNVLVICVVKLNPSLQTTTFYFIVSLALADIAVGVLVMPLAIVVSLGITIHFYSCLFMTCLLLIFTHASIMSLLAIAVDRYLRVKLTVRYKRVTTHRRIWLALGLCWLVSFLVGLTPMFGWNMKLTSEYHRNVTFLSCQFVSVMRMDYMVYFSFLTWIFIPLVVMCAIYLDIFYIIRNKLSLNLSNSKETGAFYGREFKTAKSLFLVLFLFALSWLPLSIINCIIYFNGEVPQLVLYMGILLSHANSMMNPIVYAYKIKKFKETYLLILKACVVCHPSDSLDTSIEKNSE

MOR = MOR (Homo sapiens, UniProt P35372); experiment: biochemical; type: binding
KOR = KOR (Homo sapiens, UniProt P41145); experiment: biochemical; type: binding; settings: for Ki: KOR, [3H]U69593, mean ± SEM, N = 2–4
Sequence of KOR (P41145 whole entry): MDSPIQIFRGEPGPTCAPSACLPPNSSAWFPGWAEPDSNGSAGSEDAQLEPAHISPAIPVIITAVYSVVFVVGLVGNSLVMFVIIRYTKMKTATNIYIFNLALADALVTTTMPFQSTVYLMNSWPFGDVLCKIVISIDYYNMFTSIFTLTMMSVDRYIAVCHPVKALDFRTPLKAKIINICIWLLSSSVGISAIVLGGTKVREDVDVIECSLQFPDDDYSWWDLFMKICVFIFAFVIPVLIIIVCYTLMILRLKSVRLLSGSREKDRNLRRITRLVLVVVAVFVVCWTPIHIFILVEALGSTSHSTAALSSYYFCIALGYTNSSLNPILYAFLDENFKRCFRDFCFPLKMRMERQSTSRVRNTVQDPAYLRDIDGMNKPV

Sequence of DOR (P41143 whole entry): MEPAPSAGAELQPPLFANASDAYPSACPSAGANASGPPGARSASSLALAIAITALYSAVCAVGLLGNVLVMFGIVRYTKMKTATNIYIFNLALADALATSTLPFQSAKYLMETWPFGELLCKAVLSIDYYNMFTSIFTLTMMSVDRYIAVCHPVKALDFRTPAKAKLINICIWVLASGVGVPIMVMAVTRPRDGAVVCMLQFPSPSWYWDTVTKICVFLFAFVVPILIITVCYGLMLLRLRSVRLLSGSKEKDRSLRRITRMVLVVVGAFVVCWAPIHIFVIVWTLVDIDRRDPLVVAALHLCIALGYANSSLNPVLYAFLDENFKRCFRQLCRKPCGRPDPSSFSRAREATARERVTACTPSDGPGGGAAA
Sequence of hDAT (Q01959 whole entry): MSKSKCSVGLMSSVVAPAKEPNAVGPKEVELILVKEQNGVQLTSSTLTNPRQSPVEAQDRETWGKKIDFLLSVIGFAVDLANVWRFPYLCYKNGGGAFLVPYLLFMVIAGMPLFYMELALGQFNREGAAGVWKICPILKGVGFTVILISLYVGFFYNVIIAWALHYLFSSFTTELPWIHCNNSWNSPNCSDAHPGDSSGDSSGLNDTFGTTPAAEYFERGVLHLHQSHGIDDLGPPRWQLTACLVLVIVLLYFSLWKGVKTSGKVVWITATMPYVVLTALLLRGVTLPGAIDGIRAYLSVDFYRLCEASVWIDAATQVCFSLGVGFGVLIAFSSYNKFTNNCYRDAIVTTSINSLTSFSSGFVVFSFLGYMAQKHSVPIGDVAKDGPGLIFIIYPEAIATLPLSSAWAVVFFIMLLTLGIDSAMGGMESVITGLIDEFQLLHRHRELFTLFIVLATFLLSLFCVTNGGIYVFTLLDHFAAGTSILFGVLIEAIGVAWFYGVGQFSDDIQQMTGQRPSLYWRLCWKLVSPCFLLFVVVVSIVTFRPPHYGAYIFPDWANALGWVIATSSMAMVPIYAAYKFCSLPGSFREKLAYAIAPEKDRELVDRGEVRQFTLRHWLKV
Sequence of rat kidney TSPO (P16257 whole entry): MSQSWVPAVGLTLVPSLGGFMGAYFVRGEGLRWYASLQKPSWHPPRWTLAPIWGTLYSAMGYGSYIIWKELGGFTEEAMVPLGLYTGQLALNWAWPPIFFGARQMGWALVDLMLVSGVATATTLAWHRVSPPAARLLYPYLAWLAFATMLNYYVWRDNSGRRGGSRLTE
Sequence of MOR (P35372 whole entry): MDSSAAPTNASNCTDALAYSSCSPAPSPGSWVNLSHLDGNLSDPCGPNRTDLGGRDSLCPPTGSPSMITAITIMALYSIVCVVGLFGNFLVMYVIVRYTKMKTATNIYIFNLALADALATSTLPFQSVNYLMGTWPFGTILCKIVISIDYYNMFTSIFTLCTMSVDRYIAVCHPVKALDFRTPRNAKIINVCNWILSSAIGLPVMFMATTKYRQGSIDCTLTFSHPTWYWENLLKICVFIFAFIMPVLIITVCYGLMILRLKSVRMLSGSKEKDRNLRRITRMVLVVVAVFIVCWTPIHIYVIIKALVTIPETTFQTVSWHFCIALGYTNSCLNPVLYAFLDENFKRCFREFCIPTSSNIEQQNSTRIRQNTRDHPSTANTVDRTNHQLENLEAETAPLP

Row | DAT, inhibition, % of control at 10 μM (hDAT) | Ki (rat kidney TSPO) [µM] | Ki (KOR) [µM] | Compound | DOR, inhibition of radioligand binding at 10 μM (class) (DOR; Table 1) | MOR, inhibition of radioligand binding at 10 μM (class) (MOR; Table 2) | DOR, inhibition of radioligand binding at 10 μM (class) (DOR; Table 2) | other results
1 | 16% | – | – | O[C@@H]1[C@H](O)[C@@H]2C[C@@H]2[C@H]1n1cnc2c(NCc3cccc(Cl)c3)nc(C#Cc3ccc(F)c(F)c3)nc21 [compound 3] | – | – | – | DOR, inhibition of radioligand binding at 10 μM (class) (DOR; Table 4): ^g (<30% inhibition of radioligand binding at 10 μM)
2 | 3% | – | – | CNC(=O)[C@@]12C[C@@H]1[C@@H](n1cnc3c(NCc4cccc(Cl)c4)nc(Cl)nc31)[C@H](O)[C@@H]2O [compound 5] | ^e (30–50% inhibition of radioligand binding at 10 μM) | – | – | TSPO, inhibition of radioligand binding at 10 μM (class) (rat kidney TSPO; Table 1): ^f (<30% inhibition of radioligand binding at 10 μM)
3 | 50% | ~0.3 | – | CNC(=O)[C@@]12C[C@@H]1[C@@H](n1cnc3c(NCc4cccc(Cl)c4)nc(C#Cc4ccccc4Cl)nc31)[C@H](O)[C@@H]2O [compound 8] | f (<30% inhibition of radioligand binding at 10 μM) | – | – | –
4 | –322% | – | – | CNC(=O)[C@@]12C[C@@H]1[C@@H](n1cnc3c(NC)nc(C#Cc4ccc(F)c(F)c4)nc31)[C@H](O)[C@@H]2O [compound 11] | ^e (30–50% inhibition of radioligand binding at 10 μM) | – | – | TSPO, inhibition of radioligand binding at 10 μM (class) (rat kidney TSPO; Table 1): ^e (30–50% inhibition of radioligand binding at 10 μM)
5 | –211% | – | – | CNC(=O)[C@@]12C[C@@H]1[C@@H](n1cnc3c(NC)nc(C#Cc4ccccc4)nc31)[C@H](O)[C@@H]2O [compound 12] | ^e (30–50% inhibition of radioligand binding at 10 μM) | – | – | TSPO, inhibition of radioligand binding at 10 μM (class) (rat kidney TSPO; Table 1): ^e (30–50% inhibition of radioligand binding at 10 μM)
6 | – | 0.684 ± 0.175 | – | CNC(=O)[C@@]12C[C@@H]1[C@@H](n1cnc3c(NC)nc(C#Cc4ccc(Cl)s4)nc31)[C@H](O)[C@@H]2O [compound 14] | ^e (30–50% inhibition of radioligand binding at 10 μM) | – | – | –
7 | –235% | – | – | CNC(=O)[C@@]12C[C@@H]1[C@@H](n1cnc3c(NC)nc(C#Cc4ccc(Br)s4)nc31)[C@H](O)[C@@H]2O [compound 15] | ^e (30–50% inhibition of radioligand binding at 10 μM) | – | – | TSPO, inhibition of radioligand binding at 10 μM (class) (rat kidney TSPO; Table 1): ^f (<30% inhibition of radioligand binding at 10 μM)
8 | 1% | – | – | CNC(=O)[C@@]12C[C@@H]1[C@@H](n1cnc3c(NC)cc(C#Cc4ccc(Cl)s4)nc31)[C@H](O)[C@@H]2O [compound 16] | ^e (30–50% inhibition of radioligand binding at 10 μM) | – | – | TSPO, inhibition of radioligand binding at 10 μM (class) (rat kidney TSPO; Table 1): ^e (30–50% inhibition of radioligand binding at 10 μM)
9 | –14% | – | – | CNC(=O)[C@@]12C[C@@H]1[C@@H](n1ccc3c(NC)ncnc31)[C@H](O)[C@@H]2O [compound 17] | ^e (30–50% inhibition of radioligand binding at 10 μM) | – | – | TSPO, inhibition of radioligand binding at 10 μM (class) (rat kidney TSPO; Table 1): ^e (30–50% inhibition of radioligand binding at 10 μM); Ki (hA3AR): 0.498 ± 0.046 µM
10 | <20% | – | ~0.4 | CNc1nc(C#Cc2ccc(Cl)s2)nc2c1ncn2[C@H]1[C@H](O)[C@H](O)[C@]2(C(=O)OC(C)C)C[C@H]12 [compound 31] | – | ^d (<30% inhibition of radioligand binding at 10 μM) | ^d (<30% inhibition of radioligand binding at 10 μM) | TSPO, inhibition of radioligand binding at 10 μM (class) (rat kidney TSPO; Table 2): ^d (<30% inhibition of radioligand binding at 10 μM); KOR, inhibition of radioligand binding at 10 μM (class) (KOR; Table 2): ^d (<30% inhibition of radioligand binding at 10 μM)
11 | –285% | > 10 | 1.21 ± 0.1 | CCCCOC(=O)[C@@]12C[C@@H]1[C@@H](n1cnc3c(NC)nc(C#Cc4ccc(Cl)s4)nc31)[C@H](O)[C@@H]2O [compound 32] | – | ^d (<30% inhibition of radioligand binding at 10 μM) | ^d (<30% inhibition of radioligand binding at 10 μM) | –
12 | –196 ± 58% | > 10 | 1.09 ± 0.32 | CNc1nc(C#Cc2ccc(Cl)s2)nc2c1ncn2[C@H]1[C@H](O)[C@H](O)[C@]2(C(=O)OCCC(C)C)C[C@H]12 [compound 33] | – | ^d (<30% inhibition of radioligand binding at 10 μM) | ^d (<30% inhibition of radioligand binding at 10 μM) | –
13 | <20% | – | > 10 | CNc1nc(C#Cc2ccc(Cl)s2)nc2c1ncn2[C@H]1[C@H](O)[C@H](O)[C@]2(C(=O)OCCC3CCCCC3)C[C@H]12 [compound 34] | – | ^d (<30% inhibition of radioligand binding at 10 μM) | ^c (30–50% inhibition of radioligand binding at 10 μM) | TSPO, inhibition of radioligand binding at 10 μM (class) (rat kidney TSPO; Table 2): ^c (30–50% inhibition of radioligand binding at 10 μM); Ki (hA3AR): 0.334 ± 0.132 µM
14 | <20% | – | 3.67 ± 1.64 | CNc1nc(C#Cc2ccc(Cl)s2)nc2c1ncn2[C@H]1[C@H](O)[C@H](O)[C@]2(C(=O)OCCc3ccccc3)C[C@H]12 [compound 36] | – | ^d (<30% inhibition of radioligand binding at 10 μM) | ^d (<30% inhibition of radioligand binding at 10 μM) | TSPO, inhibition of radioligand binding at 10 μM (class) (rat kidney TSPO; Table 2): ^d (<30% inhibition of radioligand binding at 10 μM); Ki (hA3AR): 0.114 ± 0.064 µM
15 | <20% | 1.09 ± 0.29 | 8.92 ± 1.08 | CNc1nc(C#Cc2ccc(Cl)s2)nc2c1ncn2[C@H]1[C@H](O)[C@H](O)[C@]2(C(=O)OCCCc3ccccc3)C[C@H]12 [compound 37] | – | ^d (<30% inhibition of radioligand binding at 10 μM) | ^d (<30% inhibition of radioligand binding at 10 μM) | Ki (hA3AR): 0.132 ± 0.068 µM
16 | –50% | – | – | CNc1nc(C#Cc2ccc(Cl)s2)nc2c1ncn2[C@H]1[C@H](O)[C@H](O)[C@]2(C(=O)O)C[C@H]12 [compound 38] | – | ^d (<30% inhibition of radioligand binding at 10 μM) | ^d (<30% inhibition of radioligand binding at 10 μM) | TSPO, inhibition of radioligand binding at 10 μM (class) (rat kidney TSPO; Table 2): ^d (<30% inhibition of radioligand binding at 10 μM); KOR, inhibition of radioligand binding at 10 μM (class) (KOR; Table 2): ^d (<30% inhibition of radioligand binding at 10 μM)
17 | –321% | – | – | CNC(=O)[C@H]1O[C@@H](n2cnc3c(NC)nc(C#Cc4ccc(Cl)s4)nc32)[C@H](O)[C@@H]1O [compound 45] | – | – | – | KOR, inhibition of radioligand binding at 10 μM (class) (KOR; Table 3): ^e (<30% inhibition of radioligand binding at 10 μM)
18 | –2% | – | – | O[C@@H]1[C@H](O)[C@@H]2C[C@@H]2[C@H]1n1cnc2c(NCc3cccc(Cl)c3)ncnc21 [compound 48] | – | – | – | TSPO, inhibition of radioligand binding at 10 μM (class) (rat kidney TSPO; Table 4): ^g (<30% inhibition of radioligand binding at 10 μM); DOR, inhibition of radioligand binding at 10 μM (class) (DOR; Table 4): ^g (<30% inhibition of radioligand binding at 10 μM)
19 | –213% | – | – | CNc1nc(C#Cc2ccccc2)nc2c1ncn2[C@H]1[C@H](O)[C@H](O)[C@@H]2C[C@@H]21 [compound 49] | – | – | – | TSPO, inhibition of radioligand binding at 10 μM (class) (rat kidney TSPO; Table 4): ^f (30–50% inhibition of radioligand binding at 10 μM); DOR, inhibition of radioligand binding at 10 μM (class) (DOR; Table 4): ^g (<30% inhibition of radioligand binding at 10 μM)
20 | 17% | 3.57 ± 1.82 | – | O[C@@H]1[C@H](O)[C@@H]2C[C@@H]2[C@H]1n1cnc2c(NCC(c3ccccc3)c3ccccc3)nc(C#Cc3ccccc3)nc21 [compound 53] | – | – | – | DOR, inhibition of radioligand binding at 10 μM (class) (DOR; Table 4): ^g (<30% inhibition of radioligand binding at 10 μM)
21 | – | – | – | O[C@@H]1[C@H](O)[C@@H]2C[C@@H]2[C@H]1n1ccc2c(NC(C3CC3)C3CC3)nc(I)nc21 [compound 58, (1R,2R,3S,4R,5S)-4-(4-((Dicyclopropylmethyl)amino)-2-iodo-7H-pyrrolo[2,3-d]pyrimidin-7-yl)bicyclo[3.1.0]hexane-2,3-diol] | – | – | – | TSPO, inhibition of radioligand binding at 10 μM (class) (rat kidney TSPO; Table 5): ^e (<30% inhibition of radioligand binding at 10 μM); MOR, inhibition of radioligand binding at 10 μM (class) (MOR; Table 5): ^e (<30% inhibition of radioligand binding at 10 μM); DOR, inhibition of radioligand binding at 10 μM (class) (DOR; Table 5): ^e (<30% inhibition of radioligand binding at 10 μM); Ki (hA3AR): 5.31 ± 1.31 µM; KOR, inhibition of radioligand binding at 10 μM (class) (KOR; Table 5): ^e (<30% inhibition of radioligand binding at 10 μM)
22 | –24% | > 10 | 0.217 ± 0.1 | CCOC(=O)[C@@]12C[C@@H]1[C@@H](n1ccc3c(NCCc4ccccc4)nc(C#Cc4ccccc4)nc31)[C@@H]1OC(C)(C)O[C@@H]12 [compound 82, Ethyl(3aR,3bS,4aS,5R,5aS)-2,2-dimethyl-5-(4-(phenethylamino)-2-(phenylethynyl)-7H-pyrrolo[2,3-d]pyrimidin-7-yl)tetrahydrocyclopropa[3,4]cyclopenta[1,2-d][1,3]dioxole-3b(3aH)-carboxylate] | – | – | – | Ki (MOR): > 10 µM; Ki (DOR): 0.881 ± 0.158 µM; Ki (hA3AR): 0.905 ± 0.144 µM
23 | – | – | – | Ala2-MePhe4-Glyol5-Enkephalin [compound 99, reference compound] | – | – | – | Kd (MOR; read-out: radioligand Kd, MOR): 0.00173 ± 0.00014 µM

From paper PMC6210068 (ACS Omega, 2018)
